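How tested: cells in 96-well plates exposed to compound for 48 hours at five concentrations. The concentration for full growth arrest is given as TGI.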
Columns and labels:
Test in all cases: DTP human tumour cell line panel, 48 h
[1] = tested on: 786-0 renal
[2] = tested on: A549 NSCLC
[3] = tested on: CAKI-1 renal
[4] = tested on: CCRF-CEM leukemia
[5] = tested on: COLO 205 colon
[6] = tested on: DLD-1 colon
[7] = tested on: DMS 114 small cell lung
[8] = tested on: DMS 273 small cell lung
[9] = tested on: EKVX NSCLC
[10] = tested on: HCC-2998 colon
[11] = tested on: HCT-116 colon
[12] = tested on: HL-60(TB) leukemia
[13] = tested on: HOP-62 NSCLC
[14] = tested on: HOP-92 NSCLC
[15] = tested on: HT29 colon
[16] = tested on: IGROV1 ovarian
[17] = tested on: K-562 leukemia
[18] = tested on: KM12 colon
[19] = tested on: LXFL 529 NSCLC
[20] = tested on: M14 melanoma
[21] = tested on: MALME-3M melanoma
[22] = tested on: MOLT-4 leukemia
[23] = tested on: NCI-H226 lung
[24] = tested on: NCI-H23 lung
[25] = tested on: NCI-H522 lung
[26] = tested on: OVCAR-3 ovarian
[27] = tested on: OVCAR-4 ovarian
[28] = tested on: OVCAR-8 ovarian
[29] = tested on: RPMI-8226 leukemia
[30] = tested on: RXF-631 renal
[31] = tested on: SF-268 CNS
[32] = tested on: SF-295 CNS
[33] = tested on: SF-539 CNS
[34] = tested on: SK-MEL-2 melanoma
[35] = tested on: SK-MEL-28 melanoma
[36] = tested on: SK-OV-3 ovarian
[37] = tested on: SN12C renal
[38] = tested on: SNB-19 CNS
[39] = tested on: SNB-75 CNS
[40] = tested on: SNB-78 CNS
[41] = tested on: SR leukemia
[42] = tested on: SW-620 colon
[43] = tested on: TK-10 renal
[44] = tested on: UACC-257 melanoma
[45] = tested on: UACC-62 melanoma
[46] = tested on: UO-31 renal
[47] = tested on: XF 498 CNS
[48] = tested on: ACHN renal
[49] = tested on: HCT-15 colon
[50] = tested on: HOP-18 NSCLC
[51] = tested on: KM20L2 colon
[52] = tested on: LOX IMVI melanoma
[53] = tested on: M19-MEL melanoma
[54] = tested on: NCI-H460 lung
[55] = tested on: OVCAR-5 ovarian
[56] = tested on: RXF 393 renal
[57] = tested on: SK-MEL-5 melanoma
[58] = tested on: U251 CNS

Which results are given for `N#CCCN(c1ccc(C=Nc2cccc([N+](=O)[O-])c2)cc1)S(=O)(=O)c1ccccc1`?
TGI [1]: > 100 µM; TGI [2]: > 100 µM; TGI [3]: > 100 µM; TGI [4]: > 100 µM; TGI [5]: > 100 µM; TGI [6]: > 100 µM; TGI [7]: > 100 µM; TGI [8]: > 100 µM; TGI [9]: > 100 µM; TGI [10]: > 100 µM; TGI [11]: > 100 µM; TGI [12]: > 100 µM; TGI [13]: > 100 µM; TGI [14]: > 100 µM; TGI [15]: > 100 µM; TGI [16]: > 100 µM; TGI [17]: > 100 µM; TGI [18]: > 100 µM; TGI [19]: > 100 µM; TGI [20]: > 100 µM; TGI [21]: > 100 µM; TGI [22]: > 100 µM; TGI [23]: > 100 µM; TGI [24]: > 100 µM; TGI [25]: > 100 µM; TGI [26]: > 100 µM; TGI [27]: > 100 µM; TGI [28]: > 100 µM; TGI [29]: > 100 µM; TGI [30]: > 100 µM; TGI [31]: > 100 µM; TGI [32]: > 100 µM; TGI [33]: > 100 µM; TGI [34]: > 100 µM; TGI [35]: > 100 µM; TGI [36]: > 100 µM; TGI [37]: > 100 µM; TGI [38]: > 100 µM; TGI [39]: > 100 µM; TGI [40]: > 100 µM; TGI [41]: > 100 µM; TGI [42]: > 100 µM; TGI [43]: > 100 µM; TGI [44]: > 100 µM; TGI [45]: > 100 µM; TGI [46]: > 100 µM; TGI [47]: > 100 µM

With `COc1cc2c(c3c1C=CCO3)C(=O)c1ccccc1C2=O` as the compound, how does the TGI [1] read?
Its TGI is greater than 100 µM.

And the TGI [2]?
Its TGI is greater than 100 µM.

What about the TGI [48] of the same compound?
The TGI was greater than 100 µM.

And the TGI [4]?
Its TGI is 66.4 µM.

What about the TGI [5] of the same compound?
The TGI was 39.8 µM.

And the TGI [6]?
Its TGI is 71.1 µM.

And the TGI [7]?
The TGI was greater than 100 µM.

And the TGI [8]?
Its TGI is greater than 100 µM.

What about the TGI [9] of the same compound?
Its TGI is greater than 100 µM.

What about the TGI [10] of the same compound?
Its TGI is greater than 100 µM.

And the TGI [11]?
Its TGI is greater than 100 µM.

What about the TGI [49] of the same compound?
Its TGI is greater than 100 µM.

And the TGI [12]?
Its TGI is 57.7 µM.

What about the TGI [50] of the same compound?
The TGI was greater than 100 µM.

And the TGI [13]?
Its TGI is greater than 100 µM.

What about the TGI [14] of the same compound?
The TGI was greater than 100 µM.

And the TGI [15]?
Its TGI is greater than 100 µM.

What about the TGI [16] of the same compound?
Its TGI is 78.5 µM.

And the TGI [17]?
The TGI was greater than 100 µM.

And the TGI [18]?
The TGI was greater than 100 µM.

And the TGI [51]?
Its TGI is greater than 100 µM.

And the TGI [52]?
The TGI was 78.6 µM.

And the TGI [19]?
The TGI was greater than 100 µM.

And the TGI [20]?
Its TGI is greater than 100 µM.

What about the TGI [53] of the same compound?
The TGI was greater than 100 µM.

What about the TGI [21] of the same compound?
Its TGI is greater than 100 µM.

What about the TGI [22] of the same compound?
Its TGI is 79.2 µM.

What about the TGI [23] of the same compound?
The TGI was 97.8 µM.

What about the TGI [24] of the same compound?
The TGI was greater than 100 µM.

What about the TGI [54] of the same compound?
Its TGI is greater than 100 µM.

What about the TGI [25] of the same compound?
Its TGI is greater than 100 µM.

And the TGI [26]?
Its TGI is greater than 100 µM.

What about the TGI [55] of the same compound?
Its TGI is greater than 100 µM.

And the TGI [28]?
The TGI was greater than 100 µM.

What about the TGI [29] of the same compound?
The TGI was greater than 100 µM.

What about the TGI [56] of the same compound?
Its TGI is greater than 100 µM.

And the TGI [31]?
The TGI was greater than 100 µM.

What about the TGI [32] of the same compound?
Its TGI is greater than 100 µM.

What about the TGI [33] of the same compound?
The TGI was greater than 100 µM.

And the TGI [34]?
Its TGI is greater than 100 µM.

What about the TGI [35] of the same compound?
The TGI was greater than 100 µM.

And the TGI [57]?
Its TGI is 78.6 µM.

And the TGI [36]?
Its TGI is greater than 100 µM.

What about the TGI [37] of the same compound?
Its TGI is greater than 100 µM.

And the TGI [38]?
Its TGI is greater than 100 µM.

And the TGI [39]?
The TGI was greater than 100 µM.

And the TGI [40]?
The TGI was greater than 100 µM.

What about the TGI [41] of the same compound?
Its TGI is greater than 100 µM.

What about the TGI [42] of the same compound?
The TGI was 97.9 µM.

And the TGI [43]?
Its TGI is greater than 100 µM.

What about the TGI [58] of the same compound?
Its TGI is greater than 100 µM.

What about the TGI [44] of the same compound?
Its TGI is 68.9 µM.

What about the TGI [45] of the same compound?
The TGI was greater than 100 µM.

What about the TGI [46] of the same compound?
Its TGI is greater than 100 µM.

Reference: PubChem BioAssay (NCI)
